In brackets after ≈: the same amount, converted by molar mass. One block for each compound: values may come before it.
How the values were obtained:
Test in all cases: ≥ marks a high value that may be exact or a test limit, other limits are often not marked, values filed in µg/mL are converted to µM
[1] = tested on: Staphylococcus aureus ATCC 29313
[2] = tested on: Staphylococcus aureus ATCC 25923
[3] = tested on: Escherichia coli ATCC 8739
[4] = tested on: Pseudomonas aeruginosa ATCC 27853
[5] = tested on: Xanthomonas axonopodis pv. citri
[6] = tested on: Escherichia coli ATCC 25922
Neisseria meningitidis = tested on: Neisseria meningitidis
Salmonella typhimurium = tested on: Salmonella typhimurium
Escherichia coli = tested on: Escherichia coli
Yersinia pestis = tested on: Yersinia pestis
Staphylococcus aureus = tested on: Staphylococcus aureus
Staphylococcus aureus MR = tested on: Staphylococcus aureus MR
[7] = tested on: Mycobacterium tuberculosis
Pseudomonas aeruginosa = tested on: Pseudomonas aeruginosa
[8] = tested on: Micrococcus luteus ATCC 4698
[9] = tested on: Psychrobacter immobilis NCIMB 308
[10] = tested on: Vibrio anguillarum NCIMB 2133
[11] = tested on: Yersinia ruckeri NCIMB 2196
[12] = tested on: Planococcus citreus NCIMB 1493
[13] = tested on: Staphylococcus aureus ATCC 9144
Yersinia ruckeri VI-3629 = tested on: Yersinia ruckeri VI-3629
[14] = tested on: Corynebacterium glutamicum ATCC 13032
[15] = tested on: Vibrio anguillarum VI-F258-3
[16] = tested on: Vibrio anguillarum NCIMB 2129
[17] = tested on: Aeromonas salmonicida NCIMB 1102
[18] = tested on: Staphylococcus aureus CIB 85462
[19] = tested on: Escherichia coli CIB 84492
[20] = tested on: Klebsiella pneumoniae ATCC 700603
[21] = tested on: Staphylococcus epidermidis RP62A
[22] = tested on: Escherichia coli ATCC 25726
[23] = tested on: Acinetobacter baumannii NM8
[24] = tested on: Stenotrophomonas maltophilia B32/4
[25] = tested on: Staphylococcus epidermidis RP62A/1
[26] = tested on: Candida albicans ATCC 90028
Aeromonas hydrophila = tested on: Aeromonas hydrophila
Vibrio harveyi = tested on: Vibrio harveyi
Escherichia coli 363 = tested on: Escherichia coli 363
Bacillus subtilis = tested on: Bacillus subtilis
Vibrio anguillarum = tested on: Vibrio anguillarum
Aerococcus viridans = tested on: Aerococcus viridans
[27] = tested on: Staphylococcus haemolyticus
Micrococcus luteus = tested on: Micrococcus luteus

MIC [2]: 1.27 µM (≈ 4 µg/mL) | MIC [3]: 1.27 µM (≈ 4 µg/mL) | MIC [4]: 10 µM (≈ 31.4 µg/mL) | MIC [5]: 2 µM (≈ 6.28 µg/mL) | MIC [6]: 5 µM (≈ 15.7 µg/mL)
Compound: CC(C)C[C@H](NC(=O)[C@H](C)NC(=O)[C@@H](NC(=O)[C@H](CCCCN)NC(=O)CNC(=O)[C@@H](NC(=O)[C@@H](NC(=O)[C@H](CCCCN)NC(=O)CNC(=O)[C@H](CC(C)C)NC(=O)[C@H](CO)NC(=O)[C@H](CCCCN)NC(=O)[C@H](CC(C)C)NC(=O)[C@H](CCCCN)NC(=O)[C@H](CC(=O)O)NC(=O)[C@H](CC(C)C)NC(=O)[C@H](Cc1c[nH]c2ccccc12)NC(=O)[C@H](C)N)C(C)C)C(C)C)C(C)C)C(=O)NCC(=O)N[C@H](C(=O)N[C@@H](C)C(=O)N[C@@H](CCC(N)=O)C(=O)N[C@@H](CC(N)=O)C(=O)N[C@@H](Cc1ccc(O)cc1)C(=O)N[C@@H](CC(C)C)C(=O)N[C@@H](CC(N)=O)C(=O)N1CCC[C@H]1C(=O)N[C@@H](CCC(N)=O)C(=O)N[C@@H](CCC(N)=O)C(=O)O)C(C)C [AWLDKLKSLGKVVGKVALGVAQNYLNPQQ]
MIC [1]: 20 µM (≈ 62.8 µg/mL)

Compound: CC[C@H](C)[C@H](NC(=O)CNC(=O)CNC(=O)[C@H](CCSC)NC(=O)[C@H](CC(C)C)NC(=O)[C@H](CCC(=O)O)NC(=O)[C@H](CCCN=C(N)N)NC(=O)CNC(=O)[C@H](CCCN=C(N)N)NC(=O)[C@H](CCSC)NC(=O)CNC(=O)[C@@H](NC(=O)[C@H](CCCN=C(N)N)NC(=O)[C@H](CC(C)C)NC(=O)[C@@H](N)CS)[C@@H](C)CC)C(=O)NCC(=O)N[C@@H](CCCCN)C(=O)N[C@H](C(=O)N[C@@H](CCSC)C(=O)O)[C@@H](C)O [CLRIGMRGRELMGGIGKTM]
MIC (Neisseria meningitidis): ≥ 144 µM | MIC (Salmonella typhimurium): ≥ 144 µM | MIC (Escherichia coli): 144 µM (≈ 300 µg/mL) | MIC (Yersinia pestis): ≥ 144 µM | MIC (Staphylococcus aureus): 144 µM (≈ 300 µg/mL) | MIC (Staphylococcus aureus MR): ≥ 144 µM | MIC [7]: ≥ 144 µM | MIC (Pseudomonas aeruginosa): 144 µM (≈ 300 µg/mL)

MIC [8]: 10 µM (≈ 25 µg/mL) | MIC [9]: 10 µM (≈ 25 µg/mL) | MIC [10]: 10 µM (≈ 25 µg/mL) | MIC [11]: 10 µM (≈ 25 µg/mL) | MIC [12]: 10 µM (≈ 25 µg/mL) | MIC [13]: 10 µM (≈ 25 µg/mL) | MIC (Yersinia ruckeri VI-3629): 10 µM (≈ 25 µg/mL) | MIC [14]: 10 µM (≈ 25 µg/mL) | MIC [15]: 10 µM (≈ 25 µg/mL) | MIC [16]: 10 µM (≈ 25 µg/mL) | MIC [17]: 10 µM (≈ 25 µg/mL) | MIC [6]: > 10 µM
Compound: CC[C@H](C)[C@H](NC(=O)[C@H](CC(C)C)NC(=O)CNC(=O)[C@@H](NC(=O)[C@@H](NC(=O)[C@H](Cc1cnc[nH]1)NC(=O)[C@H](Cc1cnc[nH]1)NC(=O)[C@H](CC(C)C)NC(=O)[C@@H](N)Cc1ccccc1)[C@@H](C)CC)C(C)C)C(=O)N[C@@H](Cc1cnc[nH]1)C(=O)N[C@@H](Cc1cnc[nH]1)C(=O)NCC(=O)N[C@@H](CCCCN)C(=O)N[C@@H](CC(C)C)C(=O)N[C@@H](CC(=O)O)C(=O)N[C@@H](CCSC)C(=O)N[C@@H](Cc1ccc(O)cc1)C(=O)N[C@@H](CCCN=C(N)N)C(=O)N[C@@H](CO)C(=O)N[C@@H](CC(N)=O)C(=O)N[C@@H](CC(N)=O)C(=O)O [FLHHIVGLIHHGKLDMYRSNN]

MIC [18]: 3.07 µM (≈ 7.99 µg/mL) | MIC [2]: 6.15 µM (≈ 16 µg/mL) | MIC [19]: 24.6 µM (≈ 64 µg/mL) | MIC [6]: 49.2 µM (≈ 128 µg/mL)
Compound: CC[C@H](C)[C@@H]1NC(=O)[C@H](CC(C)C)NC(=O)[C@@H](NC(=O)[C@H](Cc2ccccc2)NC(=O)[C@@H](NC(=O)[C@@H](NC(=O)[C@@H]2CCCN2C(=O)[C@@H](NC(=O)[C@@H](NC(=O)[C@H](CCCCN)NC(=O)[C@H](C)NC(=O)[C@H](C)NC(=O)[C@@H](NC(=O)[C@H](CCCN=C(N)N)NC(=O)[C@H](CC(C)C)NC(=O)[C@@H](NC(=O)[C@H](C)NC(=O)[C@@H]2CCCN2C(=O)[C@H](CC(C)C)NC(=O)[C@@H](N)Cc2ccccc2)C(C)C)C(C)C)C(C)C)C(C)C)[C@@H](C)O)C(C)C)CSSC[C@@H](C(=O)O)NC(=O)[C@H](CCCCN)NC(=O)[C@H](CCCCN)NC(=O)[C@H](CO)NC1=O [FLPAVLRVAAKVVPTVFCLISKKC]

MIC [20]: > 128 µM | MIC [21]: 16 µM (≈ 25.6 µg/mL) | MIC [2]: 32 µM (≈ 51.1 µg/mL) | MIC [4]: > 128 µM | MIC [22]: ≥ 256 µM | MIC [23]: ≥ 128 µM | MIC [24]: ≥ 128 µM | MIC [25]: 8 µM (≈ 12.8 µg/mL) | MIC [26]: ≥ 128 µM
Compound: CC[C@H](C)[C@H](N)C(=O)N[C@@H](CC(C)C)C(=O)NCC(=O)N[C@@H](CCCCN)C(=O)N[C@@H](CC(C)C)C(=O)N[C@@H](CC(C)C)C(=O)N[C@@H](CO)C(=O)N[C@H](C(=O)N[C@@H](C)C(=O)N[C@@H](C)C(=O)NCC(=O)N[C@@H](CC(C)C)C(=O)N[C@@H](CC(C)C)C(=O)N[C@@H](CO)C(=O)N[C@@H](CCCCN)C(=O)N[C@@H](CC(C)C)C(N)=O)[C@@H](C)O [ILGKLLSTAAGLLSKL]

MIC (Aeromonas hydrophila): ≥ 50 µM | MIC (Vibrio harveyi): ≥ 50 µM | MIC (Escherichia coli 363): ≥ 50 µM | MIC (Bacillus subtilis): ≥ 50 µM | MIC (Vibrio anguillarum): ≥ 50 µM | MIC (Aerococcus viridans): 12.5 µM (≈ 37.4 µg/mL) | MIC (Micrococcus luteus): 25 µM (≈ 74.8 µg/mL)
Compound: CC[C@H](C)[C@H](N)C(=O)N1CCC[C@H]1C(=O)N[C@@H](C)C(=O)N[C@@H](CCSC)C(=O)N[C@@H](CCC(=O)O)C(=O)N1CCC[C@H]1C(=O)N[C@@H](C)C(=O)N[C@@H](C)C(=O)N[C@@H](CCCN=C(N)N)C(=O)N[C@H](C(=O)N[C@@H](CCCCN)C(=O)N[C@@H](CCCN=C(N)N)C(=O)N[C@@H](CO)C(=O)N1CCC[C@H]1C(=O)NCC(=O)N[C@@H](Cc1ccc(O)cc1)C(=O)NCC(=O)NCC(=O)N[C@H]1CSSC[C@@H](C(=O)NCC(=O)NCC(=O)N[C@@H](Cc2ccc(O)cc2)C(=O)NCC(=O)O)NC(=O)[C@H](C)NC(=O)[C@H](Cc2c[nH]c3ccccc23)NC(=O)[C@H](CCCN=C(N)N)NC(=O)[C@@H]2CCCN2C(=O)[C@H](CO)NC1=O)C(C)C [IPAMEPAARVKRSPGYGGCSPRWACGGYG]
MIC [27]: ≥ 50 µM
